In PubChem BioAssay AID1259407 (Chemical Carcinogenesis Research Information System (CCRIS), 2018):
Activity calls are given as the source filed them. The rule behind the calls is not given here.

Tested on: CCRIS mutagenicity, Ames/micronucleus/aberration tests
Test: CCRIS mutagenicity studies
[1] = Test System: AMES SALMONELLA TYPHIMURIUM, Strain/Indicator: TA100, Metabolic Activation: NONE, Method: PREINCUBATION
[2] = Test System: AMES SALMONELLA TYPHIMURIUM, Strain/Indicator: TA98, Metabolic Activation: NONE, Method: STANDARD PLATE
[3] = Test System: AMES SALMONELLA TYPHIMURIUM, Strain/Indicator: TA98, Metabolic Activation: RAT, LIVER, S-9, AROCLOR 1254, Method: STANDARD PLATE
[4] = Test System: AMES SALMONELLA TYPHIMURIUM, Strain/Indicator: TA100, Metabolic Activation: NONE, Method: STANDARD PLATE
[5] = Test System: AMES SALMONELLA TYPHIMURIUM, Strain/Indicator: TA100, Metabolic Activation: RAT, LIVER, S-9, AROCLOR 1254, Method: STANDARD PLATE
[6] = Test System: AMES SALMONELLA TYPHIMURIUM, Strain/Indicator: TA102, Metabolic Activation: NONE, Method: STANDARD PLATE

CC1=C(O)C(=O)CC1
mutagenic call (Test System: AMES SALMONELLA TYPHIMURIUM, Strain/Indicator: TA98, Metabolic Activation: NONE, Method: PREINCUBATION): inactive; negative | mutagenic call (Test System: AMES SALMONELLA TYPHIMURIUM, Strain/Indicator: TA98, Metabolic Activation: RAT, LIVER, S-9, AROCLOR 1254, Method: PREINCUBATION): inactive; negative | mutagenic call [1]: inactive; negative | mutagenic call (Test System: AMES SALMONELLA TYPHIMURIUM, Strain/Indicator: TA100, Metabolic Activation: RAT, LIVER, S-9, AROCLOR 1254, Method: PREINCUBATION): inactive; negative | mutagenic call (Test System: AMES SALMONELLA TYPHIMURIUM, Strain/Indicator: TA102, Metabolic Activation: NONE, Method: PREINCUBATION): inactive; negative | mutagenic call (Test System: AMES SALMONELLA TYPHIMURIUM, Strain/Indicator: TA102, Metabolic Activation: RAT, LIVER, S-9, AROCLOR 1254, Method: PREINCUBATION): inactive; negative

O=[N+]([O-])c1ccc2c(c1)CC=C2
mutagenic call [2]: active; positive

O=S(=O)(O)NC1CCCCC1
mutagenic call (Test System: CHINESE HAMSTER OVARY, Strain/Indicator: CHO-K1-BH4 (HGPRT), Metabolic Activation: NONE, Method: STANDARD PLATE): inactive; negative | mutagenic call (Test System: CHINESE HAMSTER OVARY, Strain/Indicator: CHO-K1-BH4 (HGPRT), Metabolic Activation: RAT, LIVER, S-9, Method: STANDARD PLATE): inactive; negative | mutagenic call (Test System: UDS RODENT HEPATOCYTES, Strain/Indicator: THY INCORP (NON-S-PHASE), Metabolic Activation: NONE, Method: AUTORADIOGRAPHY): inactive; negative

CC1NC(C(=O)O)Cc2c1[nH]c1ccccc21 (stereo unspecified)
mutagenic call (Test System: AMES SALMONELLA TYPHIMURIUM, Strain/Indicator: TA97, Metabolic Activation: NONE, Method: STANDARD PLATE): inactive; negative | mutagenic call (Test System: AMES SALMONELLA TYPHIMURIUM, Strain/Indicator: TA97, Metabolic Activation: RAT, LIVER, S-9, AROCLOR 1254, Method: STANDARD PLATE): inactive; negative | mutagenic call [2]: inactive; negative | mutagenic call [3]: inactive; negative | mutagenic call [4]: inactive; negative | mutagenic call [5]: inactive; negative

CCCCCCCCCC(=O)OCCN1CCN(CCCN2c3ccccc3Sc3ccc(C(F)(F)F)cc32)CC1
mutagenic call (Test System: AMES SALMONELLA TYPHIMURIUM, Strain/Indicator: TA98, Metabolic Activation: NONE): inactive; negative | mutagenic call (Test System: AMES SALMONELLA TYPHIMURIUM, Strain/Indicator: TA98, Metabolic Activation: RAT, LIVER, S-9, PHENOBARBITAL AND 5,6-BENZOFLAVONE): inactive; negative | mutagenic call [1]: inactive; negative | mutagenic call (Test System: AMES SALMONELLA TYPHIMURIUM, Strain/Indicator: TA100, Metabolic Activation: RAT, LIVER, S-9, PHENOBARBITAL AND 5,6-BENZOFLAVONE): inactive; negative | mutagenic call (Test System: AMES SALMONELLA TYPHIMURIUM, Strain/Indicator: TA1535, Metabolic Activation: NONE): inactive; negative | mutagenic call (Test System: AMES SALMONELLA TYPHIMURIUM, Strain/Indicator: TA1535, Metabolic Activation: RAT, LIVER, S-9, PHENOBARBITAL AND 5,6-BENZOFLAVONE): inactive; negative | mutagenic call (Test System: AMES SALMONELLA TYPHIMURIUM, Strain/Indicator: TA1537, Metabolic Activation: NONE): inactive; negative | mutagenic call (Test System: AMES SALMONELLA TYPHIMURIUM, Strain/Indicator: TA1537, Metabolic Activation: RAT, LIVER, S-9, PHENOBARBITAL AND 5,6-BENZOFLAVONE): inactive; negative | mutagenic call (Test System: E. COLI, Strain/Indicator: WP2 UVRA, Metabolic Activation: NONE): inactive; negative | mutagenic call (Test System: E. COLI, Strain/Indicator: WP2 UVRA, Metabolic Activation: RAT, LIVER, S-9, PHENOBARBITAL AND 5,6-BENZOFLAVONE): inactive; negative

COc1ccc(C(=O)ON(OCc2ccccc2)C(=O)c2ccccc2)cc1
mutagenic call [4]: active; positive | mutagenic call (Test System: AMES SALMONELLA TYPHIMURIUM, Strain/Indicator: TA100, Metabolic Activation: RAT, S-9, AROCLOR, Method: STANDARD PLATE): active; positive

CCOC(=O)CC(SP(=S)(OC)OC)C(=O)OCC (stereo unspecified)
mutagenic call (End Point: IN VITRO CHROMOSOMAL ABERRATIONS, Test System: CHINESE HAMSTER OVARY CELLS, Metabolic Activation: NONE): inactive; negative | mutagenic call (End Point: IN VITRO CHROMOSOMAL ABERRATIONS, Test System: CHINESE HAMSTER OVARY CELLS, Metabolic Activation: RAT, LIVER, S-9, AROCLOR 1254): active; positive; precipitation occurred at all doses | mutagenic call (End Point: IN VITRO MICRONUCLEUS, Test System: HUMAN PERIPHERAL LYMPHOCYTES, Metabolic Activation: NONE, Method: DUAL COLOR PROBE): active; positive | mutagenic call (End Point: IN VIVO CHROMOSOMAL ABERRATIONS, Test System: BONE MARROW, Species: MOUSE, Strain/Sex: SWISS/MALE, Route: IP INJECTION): active; positive (structural changes: chromosome gaps, abnormal metaphases) | mutagenic call (End Point: IN VIVO CHROMOSOMAL ABERRATIONS, Test System: BONE MARROW, Species: MOUSE, Strain/Sex: SWISS/MALE, Route: ORAL (DIET)): active; positive (structural changes: gaps, breaks, deletions, tetraploidy) | mutagenic call (End Point: IN VIVO MICRONUCLEUS, Test System: BONE MARROW POLYCHROMATIC ERYTHROCYTES, Species: MOUSE, Strain/Sex: SWISS/MALE, FEMALE, Route: IP INJECTION): active; positive; higher dose effective | mutagenic call (End Point: IN VIVO MICRONUCLEUS, Test System: BONE MARROW POLYCHROMATIC ERYTHROCYTES, Species: MOUSE, Strain/Sex: SWISS/MALE, FEMALE, Route: ORAL): active; positive | mutagenic call (End Point: In vivo micronucleus, Test System: Peripheral blood polychromatic and normochromatic erythrocytes, Species: Rat, Strain/Sex: Wistar/Male, Route: Intraperitoneal): active; positive. positive response at highest dose. | mutagenic call (End Point: In vivo micronucleus, Test System: Peripheral blood polychromatic erythrocytes, Species: Rat, Strain/Sex: Wistar/Male, Route: Intraperitoneal): inactive; negative. increases in ratio of polychromatic erythrocytes to normochromatic lym | mutagenic call (Test System: AMES SALMONELLA TYPHIMURIUM, Strain/Indicator: TA97A, Metabolic Activation: NONE, Method: STANDARD PLATE): inactive; negative | mutagenic call (Test System: AMES SALMONELLA TYPHIMURIUM, Strain/Indicator: TA97A, Metabolic Activation: RAT, CECAL CELL FREE EXTRACT, Method: STANDARD PLATE): inactive; negative | mutagenic call (Test System: AMES SALMONELLA TYPHIMURIUM, Strain/Indicator: TA97A, Metabolic Activation: RAT, LIVER, S-9, AROCLOR 1254, Method: STANDARD PLATE): inactive; negative | mutagenic call [2]: inactive; negative | mutagenic call (Test System: AMES SALMONELLA TYPHIMURIUM, Strain/Indicator: TA98, Metabolic Activation: RAT, CECAL CELL FREE EXTRACT, Method: STANDARD PLATE): inactive; negative | mutagenic call [3]: inactive; negative | mutagenic call (Test System: AMES SALMONELLA TYPHIMURIUM, Strain/Indicator: TA98, Metabolic Activation: S-9, NADPH GENERATING SYSTEM, Method: STANDARD PLATE): inactive; negative | mutagenic call [4]: inactive; negative | mutagenic call (Test System: AMES SALMONELLA TYPHIMURIUM, Strain/Indicator: TA100, Metabolic Activation: RAT, CECAL CELL FREE EXTRACT, Method: STANDARD PLATE): inactive; negative | mutagenic call [5]: inactive; negative | mutagenic call [6]: inactive; negative | mutagenic call (Test System: AMES SALMONELLA TYPHIMURIUM, Strain/Indicator: TA102, Metabolic Activation: S-9, NADPH GENERATING SYSTEM, Method: STANDARD PLATE): inactive; negative | mutagenic call (Test System: AMES SALMONELLA TYPHIMURIUM, Strain/Indicator: TA1535, Metabolic Activation: NONE, Method: STANDARD PLATE): inactive; negative | mutagenic call (Test System: AMES SALMONELLA TYPHIMURIUM, Strain/Indicator: TA1535, Metabolic Activation: S-9, NADPH GENERATING SYSTEM, Method: STANDARD PLATE): inactive; negative | mutagenic call (Test System: AMES SALMONELLA TYPHIMURIUM, Strain/Indicator: TA1537, Metabolic Activation: NONE, Method: STANDARD PLATE): inactive; negative | mutagenic call (Test System: AMES SALMONELLA TYPHIMURIUM, Strain/Indicator: TA1537, Metabolic Activation: S-9, NADPH GENERATING SYSTEM, Method: STANDARD PLATE): inactive; negative

CN1CCN(c2ccc3nc(CCCCCCc4ccc5nc(-c6ccc(N(CCCl)CCCl)cc6)[nH]c5c4)[nH]c3c2)CC1
mutagenic call [2]: inactive; negative | mutagenic call [4]: inactive; negative | mutagenic call [6]: inactive; negative
